Source: ChEMBL document CHEMBL1139605, “Novel ketal ligands for the glucocorticoid receptor: in vitro and in vivo activity” (Bioorg Med Chem Lett, 2005)
pEC50, pIC50: −log10 of the molar value. Blank lines part the entries; values can stand above or below the compound they belong to.

Tests used:
Glucocorticoid receptor [1] = target: T1, Glucocorticoid receptor (Homo sapiens, UniProt P04150); assay: Inhibition of human glucocorticoid receptor alpha isoform
T1 sequence (P04150 whole entry): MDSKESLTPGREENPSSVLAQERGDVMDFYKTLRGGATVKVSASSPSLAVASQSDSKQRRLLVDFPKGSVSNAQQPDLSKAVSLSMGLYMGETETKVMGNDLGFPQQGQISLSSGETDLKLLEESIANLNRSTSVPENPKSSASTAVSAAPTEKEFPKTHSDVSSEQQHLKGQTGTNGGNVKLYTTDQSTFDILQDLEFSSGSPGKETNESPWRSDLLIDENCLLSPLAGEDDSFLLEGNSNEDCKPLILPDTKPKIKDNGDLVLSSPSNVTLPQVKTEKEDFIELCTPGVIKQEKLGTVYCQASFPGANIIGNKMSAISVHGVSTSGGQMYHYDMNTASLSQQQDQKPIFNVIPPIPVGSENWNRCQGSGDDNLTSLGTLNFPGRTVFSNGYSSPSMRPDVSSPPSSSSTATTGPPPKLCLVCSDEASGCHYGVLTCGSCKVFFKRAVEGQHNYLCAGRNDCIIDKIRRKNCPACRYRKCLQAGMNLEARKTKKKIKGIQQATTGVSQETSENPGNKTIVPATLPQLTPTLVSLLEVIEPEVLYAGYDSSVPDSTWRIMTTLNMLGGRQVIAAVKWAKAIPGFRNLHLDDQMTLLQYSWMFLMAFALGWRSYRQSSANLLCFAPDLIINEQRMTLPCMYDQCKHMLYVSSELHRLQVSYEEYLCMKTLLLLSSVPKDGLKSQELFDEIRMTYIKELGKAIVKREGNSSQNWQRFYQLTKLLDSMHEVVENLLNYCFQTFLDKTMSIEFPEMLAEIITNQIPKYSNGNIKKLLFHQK

[2] = Effective concentration required for induction of glutamine synthetase in human skeletal muscle cells using 58% radiolabeled Dexamethasone; type: functional
Mus musculus [3] = species: Mus musculus; assay: Effective concentration required for inhibition of interleukin-6 in mouse thioglycolate-elicited peritoneal exudate cell line using 66% radiolabeled Dexamethasone; type: functional
[4] = target: T2, Mineralocorticoid receptor (Rattus norvegicus, UniProt P22199); assay: Binding affinity for rat mineralocorticoid receptor
T2 sequence (P22199 whole entry): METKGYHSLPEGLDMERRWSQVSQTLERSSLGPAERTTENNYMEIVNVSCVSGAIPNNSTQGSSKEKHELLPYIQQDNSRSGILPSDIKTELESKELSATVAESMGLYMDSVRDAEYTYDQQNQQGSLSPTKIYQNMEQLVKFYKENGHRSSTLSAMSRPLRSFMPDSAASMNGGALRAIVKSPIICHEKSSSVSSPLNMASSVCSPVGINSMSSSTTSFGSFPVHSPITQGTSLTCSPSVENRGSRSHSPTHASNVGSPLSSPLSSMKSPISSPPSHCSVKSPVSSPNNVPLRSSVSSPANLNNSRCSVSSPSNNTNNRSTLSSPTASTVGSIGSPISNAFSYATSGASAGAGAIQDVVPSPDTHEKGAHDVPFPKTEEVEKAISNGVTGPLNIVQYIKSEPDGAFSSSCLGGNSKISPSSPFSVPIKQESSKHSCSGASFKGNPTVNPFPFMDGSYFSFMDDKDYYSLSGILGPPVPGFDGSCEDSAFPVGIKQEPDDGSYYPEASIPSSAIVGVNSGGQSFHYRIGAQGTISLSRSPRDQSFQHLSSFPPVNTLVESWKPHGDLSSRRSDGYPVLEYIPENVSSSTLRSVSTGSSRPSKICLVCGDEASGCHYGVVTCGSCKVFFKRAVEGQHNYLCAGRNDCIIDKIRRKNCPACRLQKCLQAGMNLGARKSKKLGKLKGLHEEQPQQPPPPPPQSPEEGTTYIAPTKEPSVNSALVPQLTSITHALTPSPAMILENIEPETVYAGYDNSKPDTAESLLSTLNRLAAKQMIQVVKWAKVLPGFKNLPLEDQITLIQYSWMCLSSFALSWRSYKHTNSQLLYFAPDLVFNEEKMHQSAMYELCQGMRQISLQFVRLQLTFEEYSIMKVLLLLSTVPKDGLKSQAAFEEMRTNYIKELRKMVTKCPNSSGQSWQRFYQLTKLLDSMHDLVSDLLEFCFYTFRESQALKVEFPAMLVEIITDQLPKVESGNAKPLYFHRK

Estrogen receptor beta = Estrogen receptor beta (Homo sapiens, UniProt Q92731); assay: Binding affinity for human estrogen receptor beta
Estrogen receptor beta, sequence (Q92731 whole entry): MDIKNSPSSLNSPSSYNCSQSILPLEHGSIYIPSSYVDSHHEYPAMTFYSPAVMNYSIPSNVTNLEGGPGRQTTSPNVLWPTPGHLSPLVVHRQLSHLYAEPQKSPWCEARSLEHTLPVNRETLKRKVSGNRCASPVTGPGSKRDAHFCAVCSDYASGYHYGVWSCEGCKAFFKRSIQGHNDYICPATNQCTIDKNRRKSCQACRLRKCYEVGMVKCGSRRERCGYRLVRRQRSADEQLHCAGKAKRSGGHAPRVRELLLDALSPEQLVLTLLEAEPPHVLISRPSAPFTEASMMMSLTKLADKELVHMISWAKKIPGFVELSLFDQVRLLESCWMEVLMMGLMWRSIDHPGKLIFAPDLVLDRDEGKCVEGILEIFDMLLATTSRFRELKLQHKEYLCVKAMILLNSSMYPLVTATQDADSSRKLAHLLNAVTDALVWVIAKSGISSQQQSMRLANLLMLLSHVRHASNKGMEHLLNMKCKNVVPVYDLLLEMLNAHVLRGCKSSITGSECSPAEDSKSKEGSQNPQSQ

Progesterone receptor = target: T3, Progesterone receptor (Homo sapiens, UniProt P06401); assay: Binding affinity for human progesterone receptor
T3 sequence (P06401 whole entry): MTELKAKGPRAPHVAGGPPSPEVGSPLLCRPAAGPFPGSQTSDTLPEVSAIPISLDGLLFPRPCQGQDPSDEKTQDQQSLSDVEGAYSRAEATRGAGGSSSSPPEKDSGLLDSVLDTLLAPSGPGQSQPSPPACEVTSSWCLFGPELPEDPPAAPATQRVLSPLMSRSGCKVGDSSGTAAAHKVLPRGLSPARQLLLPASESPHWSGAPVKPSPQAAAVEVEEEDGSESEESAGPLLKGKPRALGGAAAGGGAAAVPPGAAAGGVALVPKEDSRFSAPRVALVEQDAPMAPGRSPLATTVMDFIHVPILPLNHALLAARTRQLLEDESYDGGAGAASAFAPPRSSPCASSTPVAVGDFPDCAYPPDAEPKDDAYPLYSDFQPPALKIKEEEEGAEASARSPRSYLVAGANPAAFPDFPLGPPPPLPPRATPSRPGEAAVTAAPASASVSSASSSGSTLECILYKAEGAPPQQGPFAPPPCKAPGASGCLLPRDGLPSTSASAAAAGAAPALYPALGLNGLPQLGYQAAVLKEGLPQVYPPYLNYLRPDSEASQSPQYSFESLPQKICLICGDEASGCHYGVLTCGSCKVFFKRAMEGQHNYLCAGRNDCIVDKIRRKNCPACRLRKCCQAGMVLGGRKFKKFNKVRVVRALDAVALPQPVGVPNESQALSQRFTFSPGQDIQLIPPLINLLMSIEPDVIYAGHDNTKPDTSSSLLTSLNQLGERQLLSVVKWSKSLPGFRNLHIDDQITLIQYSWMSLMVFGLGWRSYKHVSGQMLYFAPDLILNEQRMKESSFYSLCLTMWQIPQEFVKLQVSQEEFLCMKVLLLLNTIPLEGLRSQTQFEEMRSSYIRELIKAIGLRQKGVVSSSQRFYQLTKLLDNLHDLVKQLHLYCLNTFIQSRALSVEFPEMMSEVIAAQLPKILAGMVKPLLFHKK

Glucocorticoid receptor [5] = target: T1, Glucocorticoid receptor; assay: Binding affinity for human glucocorticoid receptor
Estrogen receptor = target: T4, Estrogen receptor (Homo sapiens, UniProt P03372); assay: Binding affinity for human estrogen receptor alpha
T4 sequence (P03372 whole entry): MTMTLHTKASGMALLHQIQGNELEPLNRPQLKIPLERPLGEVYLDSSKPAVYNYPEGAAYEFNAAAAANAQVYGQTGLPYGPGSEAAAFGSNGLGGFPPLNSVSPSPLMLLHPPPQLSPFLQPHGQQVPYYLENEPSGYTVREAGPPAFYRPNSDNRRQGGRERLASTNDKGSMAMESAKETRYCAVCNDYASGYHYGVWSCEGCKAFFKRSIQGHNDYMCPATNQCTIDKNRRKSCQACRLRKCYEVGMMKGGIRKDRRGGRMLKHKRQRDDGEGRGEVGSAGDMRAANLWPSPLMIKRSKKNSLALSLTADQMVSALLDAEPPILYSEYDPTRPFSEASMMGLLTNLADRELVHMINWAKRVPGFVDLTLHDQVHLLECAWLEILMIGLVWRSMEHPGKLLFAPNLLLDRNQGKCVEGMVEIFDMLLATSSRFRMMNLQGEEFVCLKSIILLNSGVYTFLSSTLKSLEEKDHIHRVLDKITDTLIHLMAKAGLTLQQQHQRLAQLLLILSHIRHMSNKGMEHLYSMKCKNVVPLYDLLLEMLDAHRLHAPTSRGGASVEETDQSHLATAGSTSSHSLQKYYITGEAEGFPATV

A549 [6] = assay: Effective concentration for inhibition of interleukin-6 in human A549 lung carcinoma cell line using 67% radiolabeled Dexamethasone; type: functional, cell-based
Mus musculus [7] = species: Mus musculus; assay: Effective concentration required for inhibition of interleukin-6 in mouse thioglycolate-elicited peritoneal exudate cell line using 79% radiolabeled Dexamethasone; type: functional
A549 [8] = assay: Effective concentration required for inhibition of interleukin-6 in human A549 lung carcinoma cell line using […]% radiolabeled Dexamethasone; type: functional, cell-based

SMILES: CCC[C@H]1OC2(CCCC3=Cc4c(cnn4-c4ccc(F)cc4)C[C@@]32C)O[C@@H]1CCC
pEC50 [2]: 7.54
pIC50 (Glucocorticoid receptor [1]): 8.05

SMILES: C[C@]12Cc3cnn(-c4ccc(F)cc4)c3C=C1CCCC21O[C@H](c2ccccc2)[C@@H](c2ccccc2)O1
pEC50 (Mus musculus [3]): 7.59
pIC50 (Glucocorticoid receptor [1]): 8.00

SMILES: C[C@]12Cc3cnn(-c4ccc(F)cc4)c3C=C1CC[C@@]21OC[C@H](c2ccccc2)O1
pIC50 (Glucocorticoid receptor [1]): 7.19

SMILES: C[C@@H]1C[C@@H](C)OC2(CCCC3=Cc4c(cnn4-c4ccc(F)cc4)C[C@@]32C)O1 (stereo not given in full)
pIC50 (Glucocorticoid receptor [1]): 8.08

SMILES: C[C@]12Cc3cnn(-c4ccc(F)cc4)c3C=C1CC[C@@]21OC[C@@H](c2ccccc2)O1
pIC50 (Glucocorticoid receptor [1]): 7.59

SMILES: CCCC[C@H]1OC2(CCCC3=Cc4c(cnn4-c4ccc(F)cc4)C[C@@]32C)O[C@@H]1CCCC
pEC50 (A549 [8]): 7.04
pIC50 (Glucocorticoid receptor [1]): 7.66

Continued by rising pIC50 (Glucocorticoid receptor [1]), values first:

pIC50 (Glucocorticoid receptor [1]): 7.42
SMILES: C=C[C@@H]1CO[C@@]2(CCC3=Cc4c(cnn4-c4ccc(F)cc4)C[C@@]32C)O1

pIC50 [4]: < 5.00
pIC50 (Estrogen receptor beta): < 5.00
pIC50 (Progesterone receptor): < 6.00
pIC50 (Glucocorticoid receptor [5]): 7.62
pIC50 (Estrogen receptor): < 5.00
pIC50 (Glucocorticoid receptor [1]): 7.62
SMILES: C[C@H]1OC2(CCC3=Cc4c(cnn4-c4ccc(F)cc4)C[C@@]32C)O[C@@H]1C

pIC50 [4]: 5.12
pIC50 (Estrogen receptor beta): < 5.00
pIC50 (Progesterone receptor): < 6.00
pIC50 (Glucocorticoid receptor [5]): 7.85
pIC50 (Estrogen receptor): < 5.00
pIC50 (Glucocorticoid receptor [1]): 7.85
SMILES: C[C@]12Cc3cnn(-c4ccc(F)cc4)c3C=C1CCCC21OCCO1

pEC50 (A549 [6]): 8.11
pEC50 (Mus musculus [7]): 7.43
pIC50 (Glucocorticoid receptor [1]): 8.60
SMILES: C/C=C/[C@H]1OC2(CCCC3=Cc4c(cnn4-c4ccc(F)cc4)C[C@@]32C)O[C@@H]1/C=C/C
